Experimental findings from ChEMBL document CHEMBL1817596, “Synthesis of a hypoxia-targeted conjugate of the cardioprotective agent 3',4'-dihydroxyflavonol and evaluation of its ability to reduce ischaemia/reperfusion injury” (Bioorg Med Chem Lett, 2011) are described below.

Data set [1] in a line: Drug uptake in rat Con8 cells assessed as compound level in cell lysate under hypoxic condition at 10^-5 M after 3 hrs by HPLC analysis. Format: ADME, cell-based. The following applies: con8, 3 h, 10 µM.
The test system of data set [2] is Aorta. Description: Vasorelaxant activity in phenylephrine and KPSS-precontracted Sprague-Dawley rat thoracic aortic rings at 10^-10 to 10^-4 M measured after 20 mins. It is filed as functional, tissue-based.
The subject of data set [3] is Aorta. Description: Vasorelaxant activity in Sprague-Dawley rat thoracic aortic rings assessed as inhibition of phenylephrine-induced contraction at 10^-5 M after 20 mins. It is filed as functional, tissue-based.
Data set [4] is described as follows: Drug uptake in rat Con8 cells assessed as compound level in cell lysate under normoxic condition at 10^-5 M after 3 hrs by HPLC analysis. The following applies: con8, 3 h, 10 µM. It is filed as ADME, cell-based.
Data set [5] deals with Rattus norvegicus. Description: Cardioprotection activity in ischemia/reperfusion-induced Sprague-Dawley rat hindquarters assessed as reduction in circulating LDH level at 8.6 mg/kg, bolus dose administered 5 mins prior to reperfusion measured 30 mins to 3 hrs after reperfusion by UV-VIS spectrophotometry. Format: functional, organism-based. On the set-up: dose 8.6 mg/kg.

For data set [6], the system named is Rattus norvegicus. Description: Cardioprotection activity in ischemia/reperfusion-induced in Sprague-Dawley rat hindquarters assessed as reduction in MPO level at 8.6 mg/kg, bolus dose administered 5 mins prior to reperfusion by spectrophotometry relative to control. It is filed as functional, organism-based. Details: dose 8.6 mg/kg.
Data set [7] is described as follows: Drug uptake in rat Con8 cells assessed as compound level in supernatant under hypoxic condition at 10^-5 M after 3 hrs by HPLC analysis. The following applies: con8, 3 h, 10 µM. Format: ADME, cell-based.
The nature of data set [8]: Drug uptake in rat Con8 cells assessed as compound level in supernatant under normoxic condition at 10^-5 M after 3 hrs by HPLC analysis. Format: ADME, cell-based. The following applies: con8, 3 h, 10 µM.
The subject of data set [9] is Aorta. Description: Inhibition of acetylcholine-induced relaxation Sprague-Dawley rat thoracic aortic rings at 10^-5 M after 20 mins in presence of superoxide generator pyrogallol. It is filed as functional. Details: scale not given: the % may be the effect or the level left.
The subject of data set [10] is Aorta. Description: Antioxidant activity in Sprague-Dawley rat thoracic aortic rings assessed as inhibition of NADPH-activated superoxide formation at 10^-6 to 10^-4 M by lucigenin-enhanced chemiluminescence assay. It is filed as functional, tissue-based.
Data set [11] relates to Rattus norvegicus. Description: Cardioprotection activity in ischemia/reperfusion-induced Sprague-Dawley rat hindquarters assessed as reduction in circulating LDH level at 5 mg/kg, bolus dose administered 5 mins prior to reperfusion measured 3 hrs after reperfusion by UV-VIS spectrophotometry. It is filed as functional, organism-based. On the set-up: dose 5 mg/kg.
The test system of data set [12] is Rattus norvegicus. Description: Cardioprotection activity in ischemia/reperfusion-induced in Sprague-Dawley rat hindquarters assessed as reduction in MPO level at 5 mg/kg, bolus dose administered 5 mins prior to reperfusion by spectrophotometric analysis relative to control. It is filed as functional, organism-based. Details: dose 5 mg/kg.
Data set [13] deals with Rattus norvegicus. Description: Cardioprotection activity in ischemia/reperfusion-induced Sprague-Dawley rat hindquarters assessed as reduction in circulating LDH level at 5 mg/kg, bolus dose administered 5 mins prior to reperfusion measured 2 hrs after reperfusion by UV-VIS spectrophotometry. It is filed as functional, organism-based. On the set-up: dose 5 mg/kg.

Active and inactive are the calls of the source. No cut-off for these calls is given here.

As to `O=c1c(O)c(-c2ccc(O)c(O)c2)oc2ccc(-n3cc(Cn4ccnc4[N+](=O)[O-])nn3)cc12`, the Drug uptake entry in [1], in data set [4], in [7] and in data set [8] was “Active” each time. Also, the outcome in data set [2] and in [3] was inactive. The outcome in [5], in [6] and in data set [10] was Active. Besides, in data set [9], the Activity was found to be 50%.
The EC50 is the midpoint of the concentration-response curve. As for `O=c1c(O)c(-c2ccc(O)c(O)c2)oc2ccccc12`, the outcome in [11], in [3] and in data set [13] was Active. Besides, the Drug uptake entry in data set [1], in [4], in data set [7] and in data set [8] was “Active” each time. In data set [2], this molecule gave an EC50 of 4.68 µM. Further, the result in data set [12] was inactive.
